Measurements from patent US10131652B2, “Pyrimidinyloxy benzene derivatives as herbicides” (E. I. DU PONT DE NEMOURS AND COMPANY, priority 2014, dated 2018).
Read-outs that look alike come from different tables or passages of the source.

Columns and labels:
Test in all cases: Test E pre-/postemergence plant response
Format in all cases: in vivo
[1] = test system: Italian ryegrass (Lolium multiflorum); conditions: scale 0 to 100, read-out: Plant response rating, Ryegrass, Italian; for pest or weed control at 16 g/ha: 16 g ai/ha; for pest or weed control at 31 g/ha: 31 g ai/ha; for pest or weed control at 62 g/ha: 62 g ai/ha; for pest or weed control at 125 g/ha: 125 g ai/ha
Procedure, shortened: (§1)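 Pre-emergence: seeds sown in silt loam soil and sprayed with test chemicals in a non-phytotoxic solvent/surfactant mix. Post-emergence: plants at 2–18 cm (1- to 4-leaf stage) in peat/vermiculite medium treated with the same formulation. Visual rating versus controls after 7–21 days, 0 (no effect) to 100 (complete control).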

[2] = test system: blackgrass (Alopecurus myosuroides); conditions: scale 0 to 100, read-out: Plant response rating, Blackgrass; for pest or weed control at 16 g/ha: 16 g ai/ha; for pest or weed control at 31 g/ha: 31 g ai/ha; for pest or weed control at 62 g/ha: 62 g ai/ha; for pest or weed control at 125 g/ha: 125 g ai/ha
Procedure, shortened: as §1

[3] = test system: bluegrass (annual bluegrass, Poa annua); conditions: scale 0 to 100, read-out: Plant response rating, Bluegrass; for pest or weed control at 16 g/ha: 16 g ai/ha; for pest or weed control at 31 g/ha: 31 g ai/ha; for pest or weed control at 62 g/ha: 62 g ai/ha; for pest or weed control at 125 g/ha: 125 g ai/ha
Procedure, shortened: as §1

kochia (Kochia scoparia) = conditions: Bassia scoparia, scale 0 to 100, read-out: Plant response rating, Kochia; for pest or weed control at 16 g/ha: 16 g ai/ha; for pest or weed control at 31 g/ha: 31 g ai/ha; for pest or weed control at 62 g/ha: 62 g ai/ha; for pest or weed control at 125 g/ha: 125 g ai/ha
Procedure, shortened: as §1

[4] = test system: lambsquarters (Chenopodium album); conditions: scale 0 to 100, read-out: Plant response rating, Lambsquarters; for pest or weed control at 16 g/ha: 16 g ai/ha; for pest or weed control at 31 g/ha: 31 g ai/ha; for pest or weed control at 62 g/ha: 62 g ai/ha; for pest or weed control at 125 g/ha: 125 g ai/ha
Procedure, shortened: as §1

[5] = test system: pigweed (Amaranthus retroflexus); conditions: scale 0 to 100, read-out: Plant response rating, Pigweed; for pest or weed control at 16 g/ha: 16 g ai/ha; for pest or weed control at 31 g/ha: 31 g ai/ha; for pest or weed control at 62 g/ha: 62 g ai/ha; for pest or weed control at 125 g/ha: 125 g ai/ha
Procedure, shortened: as §1

[6] = test system: speedwell (bird's-eye speedwell, Veronica persica); conditions: scale 0 to 100, read-out: Plant response rating, Speedwell; for pest or weed control at 16 g/ha: 16 g ai/ha; for pest or weed control at 62 g/ha: 62 g ai/ha; for pest or weed control at 125 g/ha: 125 g ai/ha
Procedure, shortened: as §1

[7] = test system: spring barley (Hordeum vulgare); conditions: for plant injury at 16 g/ha: 16 g ai/ha; for plant injury at 31 g/ha: 31 g ai/ha; for plant injury at 62 g/ha: 62 g ai/ha; for plant injury at 125 g/ha: 125 g ai/ha
Procedure, shortened: as §1

[8] = test system: wild mustard (Sinapis arvensis); conditions: Brassica, scale 0 to 100, read-out: Plant response rating, Mustard, Wild; for pest or weed control at 16 g/ha: 16 g ai/ha; for pest or weed control at 31 g/ha: 31 g ai/ha; for pest or weed control at 62 g/ha: 62 g ai/ha; for pest or weed control at 125 g/ha: 125 g ai/ha
Procedure, shortened: as §1

[9] = test system: wild radish (Raphanus raphanistrum); conditions: scale 0 to 100, read-out: Plant response rating, Radish, Wild; for pest or weed control at 16 g/ha: 16 g ai/ha; for pest or weed control at 31 g/ha: 31 g ai/ha; for pest or weed control at 62 g/ha: 62 g ai/ha; for pest or weed control at 125 g/ha: 125 g ai/ha
Procedure, shortened: as §1

[10] = test system: winter wheat (Triticum aestivum); conditions: scale 0 to 100, read-out: Plant response rating, Wheat, Winter; for plant injury at 16 g/ha: 16 g ai/ha; for plant injury at 62 g/ha: 62 g ai/ha; for plant injury at 125 g/ha: 125 g ai/ha
Procedure, shortened: as §1

[11] = post-emergence, 31 g ai/ha, Postemergence
[12] = post-emergence, Postemergence, scale 0 to 100, read-out: Plant response rating, Barley, Spring
[13] = pre-emergence, Preemergence, scale 0 to 100, read-out: Plant response rating, Barley, Spring

Fc1cccc(Oc2ncc(Cl)cn2)c1-c1cc(C(F)F)no1 [Compound 144, 5-chloro-2-[2-[3-(difluoromethyl)-5-isoxazolyl]-3-fluorophenoxy]pyrimidine]
35%: plant injury at 62 g/ha [7, 12] | plant injury at 62 g/ha ([10]; post-emergence, Postemergence) | plant injury at 125 g/ha ([10]; pre-emergence, Preemergence)
80%: pest or weed control at 16 g/ha ([4]; post-emergence, Postemergence) | pest or weed control at 16 g/ha ([9]; pre-emergence, Preemergence) | pest or weed control at 31 g/ha ([9]; pre-emergence, Preemergence)
45%: pest or weed control at 31 g/ha ([3]; post-emergence, Postemergence) | plant injury at 125 g/ha ([7]; post-emergence, Postemergence, scale 0 to 100 (0 no effect, 100 complete control), read-out: Plant response rating, Barley, Spring) | plant injury at 62 g/ha [7, 13]
25%: pest or weed control at 31 g/ha ([1]; pre-emergence, Preemergence) | pest or weed control at 16 g/ha ([2]; post-emergence, Postemergence) | pest or weed control at 16 g/ha ([3]; post-emergence, Postemergence) | plant injury at 31 g/ha [7, 12] | plant injury at 31 g/ha [7, 13] | plant injury at 62 g/ha ([10]; pre-emergence, Preemergence)
5%: pest or weed control at 16 g/ha ([1]; post-emergence, Postemergence)
65%: pest or weed control at 125 g/ha ([1]; post-emergence, Postemergence) | pest or weed control at 125 g/ha ([3]; post-emergence, Postemergence) | plant injury at 125 g/ha [7, 13]
95%: pest or weed control at 31 g/ha ([4]; post-emergence, Postemergence)
40%: pest or weed control at 62 g/ha ([1]; post-emergence, Postemergence) | pest or weed control at 62 g/ha ([3]; pre-emergence, Preemergence)
85%: pest or weed control at 125 g/ha ([2]; post-emergence, Postemergence) | pest or weed control at 125 g/ha ([3]; pre-emergence, Preemergence)
20%: plant injury at 16 g/ha ([10]; post-emergence, Postemergence)
55%: pest or weed control at 62 g/ha ([3]; post-emergence, Postemergence)
10%: pest or weed control at 16 g/ha ([1]; pre-emergence, Preemergence) | pest or weed control at 16 g/ha ([3]; pre-emergence, Preemergence) | plant injury at 16 g/ha [7, 13]
75%: pest or weed control at 31 g/ha ([2]; pre-emergence, Preemergence)
30%: plant injury at 31 g/ha [10, 11]
100%: pest or weed control at 125 g/ha ([1]; pre-emergence, Preemergence) | pest or weed control at 125 g/ha ([2]; pre-emergence, Preemergence) | pest or weed control at 16 g/ha (kochia (Kochia scoparia); post-emergence, Postemergence) | pest or weed control at 31 g/ha (kochia (Kochia scoparia); post-emergence, Postemergence) | pest or weed control at 62 g/ha (kochia (Kochia scoparia); post-emergence, Postemergence) | pest or weed control at 125 g/ha (kochia (Kochia scoparia); post-emergence, Postemergence) | pest or weed control at 31 g/ha (kochia (Kochia scoparia); pre-emergence, Preemergence) | pest or weed control at 62 g/ha (kochia (Kochia scoparia); pre-emergence, Preemergence) | pest or weed control at 125 g/ha (kochia (Kochia scoparia); pre-emergence, Preemergence) | pest or weed control at 125 g/ha ([4]; post-emergence, Postemergence) | pest or weed control at 16 g/ha ([4]; pre-emergence, Preemergence) | pest or weed control at 31 g/ha ([4]; pre-emergence, Preemergence) | pest or weed control at 62 g/ha ([4]; pre-emergence, Preemergence) | pest or weed control at 125 g/ha ([4]; pre-emergence, Preemergence) | pest or weed control at 31 g/ha ([5]; post-emergence, Postemergence) | pest or weed control at 62 g/ha ([5]; post-emergence, Postemergence) | pest or weed control at 125 g/ha ([5]; post-emergence, Postemergence) | pest or weed control at 16 g/ha ([5]; pre-emergence, Preemergence) | pest or weed control at 31 g/ha ([5]; pre-emergence, Preemergence) | pest or weed control at 62 g/ha ([5]; pre-emergence, Preemergence) | pest or weed control at 125 g/ha ([5]; pre-emergence, Preemergence) | pest or weed control at 16 g/ha ([6]; post-emergence, Postemergence) | pest or weed control at 31 g/ha [6, 11] | pest or weed control at 62 g/ha ([6]; post-emergence, Postemergence) | pest or weed control at 125 g/ha ([6]; post-emergence, Postemergence) | pest or weed control at 16 g/ha ([6]; pre-emergence, Preemergence) | pest or weed control at 62 g/ha ([6]; pre-emergence, Preemergence) | pest or weed control at 125 g/ha ([6]; pre-emergence, Preemergence) | pest or weed control at 16 g/ha ([8]; post-emergence, Postemergence) | pest or weed control at 31 g/ha ([8]; post-emergence, Postemergence) | pest or weed control at 62 g/ha ([8]; post-emergence, Postemergence) | pest or weed control at 125 g/ha ([8]; post-emergence, Postemergence) | pest or weed control at 31 g/ha ([8]; pre-emergence, Preemergence) | pest or weed control at 62 g/ha ([8]; pre-emergence, Preemergence) | pest or weed control at 125 g/ha ([8]; pre-emergence, Preemergence) | pest or weed control at 16 g/ha ([9]; post-emergence, Postemergence) | pest or weed control at 31 g/ha ([9]; post-emergence, Postemergence) | pest or weed control at 62 g/ha ([9]; post-emergence, Postemergence) | pest or weed control at 125 g/ha ([9]; post-emergence, Postemergence) | pest or weed control at 62 g/ha ([9]; pre-emergence, Preemergence) | pest or weed control at 125 g/ha ([9]; pre-emergence, Preemergence)
0%: plant injury at 16 g/ha ([10]; pre-emergence, Preemergence)
15%: pest or weed control at 31 g/ha ([1]; post-emergence, Postemergence) | pest or weed control at 16 g/ha ([2]; pre-emergence, Preemergence) | pest or weed control at 31 g/ha ([3]; pre-emergence, Preemergence) | plant injury at 16 g/ha [7, 12]
50%: pest or weed control at 31 g/ha ([2]; post-emergence, Postemergence)
90%: pest or weed control at 16 g/ha ([8]; pre-emergence, Preemergence)
70%: pest or weed control at 62 g/ha ([1]; pre-emergence, Preemergence) | plant injury at 125 g/ha ([10]; post-emergence, Postemergence)
98%: pest or weed control at 62 g/ha ([2]; pre-emergence, Preemergence) | pest or weed control at 16 g/ha (kochia (Kochia scoparia); pre-emergence, Preemergence) | pest or weed control at 62 g/ha ([4]; post-emergence, Postemergence) | pest or weed control at 16 g/ha ([5]; post-emergence, Postemergence)
60%: pest or weed control at 62 g/ha ([2]; post-emergence, Postemergence)
